Measured values as given in US20120201749A1, “NP-1 Antagonists and Their Therapeutic Use” (priority 2009, published 2012).
Where “and” joins values, the source holds several entries; their conditions need not be identical. Equal values may be shown once.

What was measured:
NP-1 = NP-1 (Homo sapiens, UniProt O14786); assay: Biotinylated-VEGF-A165 (bt-VEGF-A165) binding to NP-1; settings: for inhibition at 3 µM: 3 μM compound, read-out: Screen (% inhibition at 3 μM); for inhibition at 30 µM: 30 μM compound, read-out: Screen (% inhibition at 30 μM)
In short: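 Cell format: DU145 cells transduced with adenoviral full-length human NP-1, 2 nM bt-VEGF-A165, DMEM/25 mM HEPES pH 7.3/0.1% BSA; plate format: NP-1 coated at 3 μg/ml, 0.25 nM bt-VEGF-A165, PBS with 1% DMSO. Both 2 h at room temperature; bound ligand read by streptavidin-HRP at A450 nm.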

[1] = system: human non-small-cell lung carcinoma A549 cells; assay: Lung cancer in vivo study, A549 xenografts in nude mice
Method: For the efficacy study, human non-small-cell lung carcinoma A549 cells were cultured in growth medium RPMI 1640. The cells at 90% confluence were detached, counted and suspended in PBS to make the final concentration of cells 5×10^7/ml for inoculation.
The compound administration began two weeks after A549 cells were inoculated in female Balb/c nude mice. Compound 58 was dosed intraperitoneally at 80 mg/kg daily for a period of 2 weeks. Tumour volume was monitored by measuring the length and the width of the tumour using an electronic digital caliper (Fisher Scientific) daily for a period of 2 weeks. Tumour volumes were calculated using a formula (length×width^2/2). At the end of the experiment, tumours were dissected and weighed.

Sequence of NP-1 (O14786 22-923): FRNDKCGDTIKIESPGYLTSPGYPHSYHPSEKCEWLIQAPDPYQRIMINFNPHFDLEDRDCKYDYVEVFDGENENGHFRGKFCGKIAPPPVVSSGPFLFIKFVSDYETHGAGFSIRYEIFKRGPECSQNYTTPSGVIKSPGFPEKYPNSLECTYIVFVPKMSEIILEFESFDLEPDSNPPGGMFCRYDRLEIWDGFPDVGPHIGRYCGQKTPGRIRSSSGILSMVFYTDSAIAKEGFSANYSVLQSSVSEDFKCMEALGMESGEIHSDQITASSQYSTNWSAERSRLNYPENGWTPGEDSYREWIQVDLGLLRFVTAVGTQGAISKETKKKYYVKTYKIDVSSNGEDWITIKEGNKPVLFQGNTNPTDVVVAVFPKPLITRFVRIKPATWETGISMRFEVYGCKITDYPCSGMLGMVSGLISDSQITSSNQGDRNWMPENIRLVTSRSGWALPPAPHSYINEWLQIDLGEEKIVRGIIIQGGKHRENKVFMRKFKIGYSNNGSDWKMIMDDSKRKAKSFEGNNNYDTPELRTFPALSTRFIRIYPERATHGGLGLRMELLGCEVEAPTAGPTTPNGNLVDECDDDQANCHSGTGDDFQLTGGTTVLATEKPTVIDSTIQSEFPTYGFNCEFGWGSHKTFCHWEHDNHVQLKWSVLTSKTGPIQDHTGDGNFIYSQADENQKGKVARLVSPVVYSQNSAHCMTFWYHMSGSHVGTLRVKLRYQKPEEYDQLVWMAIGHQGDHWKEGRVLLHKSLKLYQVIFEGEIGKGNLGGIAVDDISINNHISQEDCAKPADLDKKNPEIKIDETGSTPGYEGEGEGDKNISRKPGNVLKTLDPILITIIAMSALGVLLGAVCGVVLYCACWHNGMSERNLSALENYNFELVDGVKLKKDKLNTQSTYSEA

SMILES	IC50 (NP-1)	inhibition at 3 µM (NP-1)	inhibition at 30 µM (NP-1)	further results
N=C(N)NCCC[C@H](NC(=O)c1sccc1NS(=O)(=O)c1cccc(NCc2csc(N3CCNCC3)n2)c1)C(=O)O [Compound 58, (S)-5-guanidino-2-[(3-{3-[(2-piperazin-1-yl-thiazol-4-ylmethyl)-amino]-benzenesulfonylamino}-thiophene-2-carbonyl]-amino]-pentanoic acid]	0.159 µM	72%	96%	reduction of the rate of tumour growth ([1]; 80 mg/kg intraperitoneally daily for 2 weeks, A549 tumours, p=0.017 by linear regression test): 52% and 50%; tumour weight reduced by ([1]; 80 mg/kg intraperitoneally daily for 2 weeks, tumours weighed at end of experiment, p=0.04 by Mann Whitney test): 27%; effect on rate of tumour growth (in words) ([1]; preclinical model of lung cancer): significantly reduced the rate of tumour growth; evidence of toxicity ([1]; single daily dose for two weeks, murine model of lung cancer): No evidence of toxicity
N=C(N)NCCC[C@H](NC(=O)c1sccc1NS(=O)(=O)c1cc(-c2cccc(CNCc3ccncc3)c2)cc2c1OCC2)C(=O)O [Compound 32, (S)-5-Guanidino-2-({3-[5-(3-{[(pyridin-4-ylmethyl)-amino]-methyl}-phenyl)-2,3-dihydro-benzofuran-7-sulfonylamino]-thiophene-2-carbonyl}-amino)-pentanoic acid]	–	75%	–	–
N=C(N)NCCC[C@H](NC(=O)c1sccc1NS(=O)(=O)c1cc(-c2cccc(CNCc3cn[nH]c3)c2)cc2c1OCC2)C(=O)O [Compound 51, (S)-5-Guanidino-2-({3-[5-(3-{[(1H-pyrazol-4-ylmethyl)-amino]-methyl}-phenyl)-2,3-dihydro-benzofuran-7-sulfonylamino]-thiophene-2-carbonyl}-amino)-pentanoic acid]	0.74 µM	94%	–	–
N=C(N)NCCC[C@H](NC(=O)c1sccc1NS(=O)(=O)c1cccc(NCc2csc(C3CCNCC3)n2)c1)C(=O)O [Compound 56, (S)-5-guanidino-2-[(3-{3-[(2-piperidin-4-yl-thiazol-4-ylmethyl)-amino]-benzenesulfonylamino}-thiophene-2-carbonyl)-amino]-pentanoic acid]	–	57%	89%	–
N=C(N)NCCC[C@H](NC(=O)c1sccc1NS(=O)(=O)c1cc(-c2ccccc2CN2CCC(N3CCOCC3)CC2)cc2c1OCC2)C(=O)O [Compound 25, (S)-5-Guanidino-2-[(3-{5-[2-(4-morpholin-4-yl-piperidin-1-ylmethyl)-phenyl]-2,3-dihydro-benzofuran-7-sulfonylamino}-thiophene-2-carbonyl)-amino]-pentanoic acid]	0.635 µM	83%	100%	–
Cc1[nH]ncc1CCCNCc1ccccc1-c1cc2c(c(S(=O)(=O)Nc3ccsc3C(=O)N[C@@H](CCCNC(=N)N)C(=O)O)c1)OCC2 [Compound 46, (S)-5-Guanidino-2-({3-[5-(2-{[3-(5-methyl-1H-pyrazol-4-yl)-propylamino]-methyl}-phenyl)-2,3-dihydro-benzofuran-7-sulfonylamino]-thiophene-2-carbonyl}-amino)-pentanoic acid]	–	65%	–	–
N=C(N)NCCC[C@H](NC(=O)c1sccc1NS(=O)(=O)c1cccc(NCc2csc(N3CCN(c4nccs4)CC3)n2)c1)C(=O)O [Compound 76, (S)-5-guanidino-2-{[3-(3-{[2-(4-thiazol-2-yl-piperazin-1-yl)-thiazol-4-ylmethyl]-amino}-benzenesulfonylamino)-thiophene-2-carbonyl]-amino}-pentanoic acid]	–	68%	–	–
N=C(N)NCCC[C@H](NC(=O)c1sccc1NS(=O)(=O)c1cccc(NCc2csc(N3CCN(Cc4ccccn4)CC3)n2)c1)C(=O)O [Compound 65, (S)-5-guanidino-2-{[3-(3-{[2-(4-pyridin-2-ylmethyl-piperazin-1-yl)-thiazol-4-ylmethyl]-amino}-benzenesulfonylamino)-thiophene-2-carbonyl]-amino}-pentanoic acid]	–	40%	90%	–
N=C(N)NCCC[C@H](NC(=O)c1sccc1NS(=O)(=O)c1cccc(NCc2csc(N3CCN(c4ncncn4)CC3)n2)c1)C(=O)O [Compound 75, (S)-5-guanidino-2-{[3-(3-{[2-(4-[1,3,5]triazin-2-yl-piperazin-1-yl)-thiazol-4-ylmethyl]-amino}-benzenesulfonylamino)-thiophene-2-carbonyl]-amino}-pentanoic acid]	–	63%	–	–
Cc1cc(CNCc2cccc(-c3cc4c(c(S(=O)(=O)Nc5ccsc5C(=O)N[C@@H](CCCNC(=N)N)C(=O)O)c3)OCC4)c2)no1 [Compound 48, (S)-5-Guanidino-2-({3-[5-(3-{[(5-methyl-isoxazol-3-ylmethyl)-amino]-methyl}-phenyl)-2,3-dihydro-benzofuran-7-sulfonylamino]-thiophene-2-carbonyl}-amino)-pentanoic acid]	0.054 µM	86%	99%	–
N=C(N)NCCC[C@H](NC(=O)c1sccc1NS(=O)(=O)c1cc(-c2ccccc2CNCc2cccnc2)cc2c1OCC2)C(=O)O [Compound 9, (S)-5-Guanidino-2-({3-[5-(2-{[(pyridin-3-ylmethyl)-amino]-methyl}-phenyl)-2,3-dihydro-benzofuran-7-sulfonylamino]-thiophene-2-carbonyl}-amino)-pentanoic acid]	3 µM	–	97%	–
COC(=O)C1CCN(Cc2ccccc2-c2cc3c(c(S(=O)(=O)Nc4ccsc4C(=O)N[C@@H](CCCNC(=N)N)C(=O)O)c2)OCC3)CC1 [Compound 5, 1-(2-{7-[2-((S)-1-Carboxy-4-guanidino-butylcarbamoyl)-thiophen-3-ylsulfamoyl]-2,3-dihydro-benzofuran-5-yl}-benzyl)-piperidine-4-carboxylic acid methyl ester]	0.014 µM	92%	100%	–
N=C(N)NCCC[C@H](NC(=O)c1sccc1NS(=O)(=O)c1cc(-c2cccc(CN3CCC(N4CCOCC4)CC3)c2)cc2c1OCC2)C(=O)O [Compound 22, (S)-5-Guanidino-2-[(3-{5-[3-(4-morpholin-4-yl-piperidin-1-ylmethyl)-phenyl]-2,3-dihydro-benzofuran-7-sulfonylamino}-thiophene-2-carbonyl)-amino]-pentanoic acid]	–	70%	98%	–
N=C(N)NCCC[C@H](NC(=O)c1sccc1NS(=O)(=O)c1cccc(NCc2csc(C(=O)O)n2)c1)C(=O)O [Compound 72]	–	31%	83%	–
N=C(N)NCCC[C@H](NC(=O)c1sccc1NS(=O)(=O)c1cc(-c2ccccc2CN2CCNCC2)cc2c1OCC2)C(=O)O [Compound 20, (S)-5-Guanidino-2-({3-[5-(2-piperazin-1-ylmethyl-phenyl)-2,3-dihydro-benzofuran-7-sulfonylamino]-thiophene-2-carbonyl}-amino)-pentanoic acid]	2 µM	82%	100%	–
N=C(N)NCCC[C@H](NC(=O)c1sccc1NS(=O)(=O)c1cc(-c2cccc(CNCc3ccccn3)c2)cc2c1OCC2)C(=O)O [Compound 31, (S)-5-Guanidino-2-({3-[5-(3-{[(pyridin-2-ylmethyl)-amino]-methyl}-phenyl)-2,3-dihydro-benzofuran-7-sulfonylamino]-thiophene-2-carbonyl}-amino)-pentanoic acid]	0.105 µM	86%	99%	–
N#Cc1cccc(NC(=O)CNc2cccc(S(=O)(=O)Nc3ccsc3C(=O)N[C@@H](CCCNC(=N)N)C(=O)O)c2)c1 [Compound 70, (S)-2-{[3-(3-{[(3-Cyano-phenylcarbamoyl)-methyl]-amino}-benzenesulfonylamino)-thiophene-2-carbonyl]-amino}-5-guanidino-pentanoic acid]	–	25%	63%	–
N=C(N)NCCC[C@H](NC(=O)c1sccc1NS(=O)(=O)c1cc(-c2cccc(CNCc3ccc(N)nc3)c2)cc2c1OCC2)C(=O)O [Compound 40, (S)-2-({3-[5-(3-{[(6-Amino-pyridin-3-ylmethyl)-amino]-methyl}-phenyl)-2,3-dihydro-benzofuran-7sulfonylamino]-thiophene-2-carbonyl}-amino)-5-guanidino-pentanoic acid]	–	56%	–	–
Cn1cncc1CNCc1ccccc1-c1cc2c(c(S(=O)(=O)Nc3ccsc3C(=O)N[C@@H](CCCNC(=N)N)C(=O)O)c1)OCC2 [Compound 23, (S)-5-Guanidino-2-({3-[5-(2-{[(3-methyl-3H-imidazol-4-ylmethyl)-amino]-methyl}-phenyl)-2,3-dihydro-benzofuran-7-sulfonylamino]-thiophene-2-carbonyl}-amino)-pentanoic acid]	–	58%	97%	–
